Experimental data from patent publication US9114177B2, “Block copolymer having phenylboronic acid group introduced therein, and use thereof” (THE UNIVERSITY OF TOKYO, priority 2011, dated 2015).

How the values were obtained:
[1] = cited from earlier work
[2] = Blood retention properties of complex; type: in vivo; conditions: mice, tail vein, 20 μg siRNA
Experimental: The block copolymer (PEG-PLL 12-23/43) and Cy5-GL3-siRNA were added to a 10 mM HEPES buffer (pH 7.3) so as to achieve an N/P ratio of 8 and an siRNA concentration of 7.5 μM, and the resultant was mixed and left to stand still for about 1 to 2 hours at room temperature to prepare a complex solution. The complex solution or a solution of the siRNA (10 mM HEPES buffer) was administered to the tail veins of mice (female Balb/C nude, 6-week-old, N=4) so that the dose was 20 μg of the siRNA, and the amount of the siRNA remaining in blood was determined over time.

[3] = siRNA diffusion time of block copolymer/siRNA complexes in serum solution (complex stability); type: physicochemical; conditions: siRNA not mixed with block copolymer, 50 nM, serum solution (10% FBS)
Experimental: A variety of block copolymers having different amino acid polymerization degrees and FPBA group contents were prepared as mentioned in Sections (1-i) to (1-iii) and (2-i) to (2-iii). It should be noted that PEG having a molecular weight (Mw) of 12,000 was used as methoxy-PEG-NH2. The block copolymers were mixed with siRNA fluorescently labeled with Cy3 so as to achieve an N/P ratio of 8. The resultant mixtures were left to stand still in a refrigerator for 1 to 2 hours and diluted with a serum solution (150 mM NaCl, 10 mM Hepes, 10% FBS) so as to achieve an siRNA concentration of 50 nM. The resultant diluted solutions were left to stand still at room temperature for about 1 hour, and the siRNA diffusion time was measured with a confocal laser scanning microscope (manufactured by Carl Zeiss, product name “LSM510”) (10 sec×10 times). It should be noted that, when the measurement was carried out in the same manner as above except that siRNA was not mixed with the block copolymer, the diffusion time (diffusion time of siRNA alone) was 157.5 μsec. It should be noted that GL3-siRNA was used as the siRNA.

Row | Compound | pKa [1] | siRNA remaining in blood at 10 minutes after administration [2] | siRNA remaining in blood at 1 hour after administration [2] | diffusion time of siRNA alone [3] [μsec]
1 | OB(O)c1ccccc1 [phenylboronic acid] | 8 to 9 | – | – | –
2 | GL3-siRNA: siRNA for firefly luciferase, SEQ ID NO: 5 and 6, fluorescently labelled (Cy3 or Cy5), tested alone (chain 1 CUUACGCUGACUACUUCGAUU; chain 2 UCGAAGUACUCAGCGUAAGUU; sense strand 5' end labeled with Cy3 (or Cy5), further chemistry not given here) | – | about 10% | almost no siRNA remained | 157.5
